Measurements: ChEMBL document CHEMBL3301361, “Experimental in vitro DMPK and physicochemical data on a set of publicly disclosed compounds”
≈ marks a conversion by molar mass, not a printed value. Values belong to the compound of their own block, whether it stands above or below them.

Assays:
[1] = human, plasma, 5 h
in vitro [2] = conditions: human, plasma, PPB
in vitro [3] = conditions: mouse, plasma
[4] = rat, plasma, 5 h
physchem [5] = conditions: octan-1-ol/water, pH 7.4, LogD7.4
in vitro [6] = conditions: SD, HW or BN, rat, plasma
in vitro [7] = conditions: Beagle, dog, plasma
physchem [8] = conditions: pH 7.4 buffer
in vitro [9] = conditions: Dunkin Hartley, guinea pig, plasma
physchem [10] = test: physchem
physchem [11] = test: physchem; remark: listed apart in the source
[12] = ASTRAZENECA: Third most basic pKa value (pKa B3) determined by absorption and potentiometric titration using standard methodology from Sirius Analytical. Experimental range Bases: >= 2.; assay type: physicochemical; conditions: read-out: pKa_B3
in vitro [13] = conditions: hepatocytes
[14] = CD1, BC, CD1, NMRI, SCID, or Nd, rat, hepatocytes
in vitro [15] = conditions: human
physchem [16] = test: physchem; remark: listed apart in the source
physchem [17] = test: physchem; remark: listed apart in the source
in vitro [18] = conditions: human, hepatocytes
[19] = dog, plasma, 5 h

CLint [14]: 44.67 microL/min/1E6 cells
microsomal CLint (in vitro [15]; microsomes): 63.1 µL/min/mg
logD (physchem [5]): 3.2
Compound: Fc1cccc(COc2ccc(Nc3ncnc4ccc(-c5cccc(N6CCOCC6)c5)cc34)cc2Cl)c1

pKa (physchem [10]): 7.96
pKa (physchem [11]): 8.94
pKa [12]: 7.31
Compound: CN(C)CCNc1cc(-c2ccc(N3CCN(C)CC3)cc2)nc2ccccc12

PPB [1]: 97.2%
hepatocyte CLint (in vitro [13]): 8 µL/min/1e6 cells
pKa (physchem [16]): 6.1
fraction unbound at 5 h (in vitro [6]): 0.0224
logD (physchem [5]): 1.29
Compound: O=C(NCCc1ccccc1Cl)c1cc(-n2ncc(=O)[nH]c2=O)ccc1Cl

fraction unbound at 5 h (in vitro [2]): 0.0156
microsomal CLint (in vitro [15]; microsomes): 4 µL/min/mg
hepatocyte CLint (in vitro [13]): 145 µL/min/1e6 cells
solubility thermodynamic (physchem [8]): 1450 µM (≈ 527 µg/mL)
pKa (physchem [17]): 9.73
pKa (physchem [11]): 6.07
pKa (physchem [16]): 3.49
fraction unbound at 5 h (in vitro [6]): 0.0366
logD (physchem [5]): -0.3
Compound: CCCCNc1cc(C(=O)O)cc(S(N)(=O)=O)c1Oc1ccccc1 [BUMETANIDE]

PPB [19]: 99.92%
microsomal CLint (in vitro [15]; liver microsomes): 9.77 µL/min/mg
hepatocyte CLint (in vitro [13]): 6.92 µL/min/1e6 cells
Compound: CCOc1ccc(-c2ccc(Cn3c(CC(C)(C)C(=O)O)c(SC(C)(C)C)c4cc(OCc5ccc(C)cn5)ccc43)cc2)cn1 [FIBOFLAPON]

PPB [1]: 75.55%
Compound: COCCCC/C(=N\OCCN)c1ccc(C(F)(F)F)cc1 [FLUVOXAMINE]

PPB [1]: 98.51%
fraction unbound at 5 h (in vitro [6]): 0.0146
Compound: OCCN1CCN(CCCN2c3ccccc3Sc3ccc(Cl)cc32)CC1 [PERPHENAZINE]

fraction unbound at 5 h (in vitro [2]): 0.02
CLint [14]: 7.11 microL/min/1E6 cells
microsomal CLint (in vitro [15]; microsomes): < 3 µL/min/mg
fraction unbound at 5 h (in vitro [7]): 0.0293
fraction unbound at 5 h (in vitro [6]): 0.0064
logD (physchem [5]): 0.91
Compound: O=C(O)C[C@H](O)C[C@H](O)/C=C/c1c(C2CC2)nc2ccccc2c1-c1ccc(F)cc1 [PITAVASTATIN]

fraction unbound at 5 h (in vitro [2]): 0.005
microsomal CLint (in vitro [15]; liver microsomes): 21 µL/min/mg
hepatocyte CLint (in vitro [13]): 30 µL/min/1e6 cells
fraction unbound at 5 h (in vitro [7]): 0.0057
PPB ([4]; SD, HW or BN): 99.5%
solubility thermodynamic (physchem [8]): 9.1 µM (≈ 4.31 µg/mL)
logD (physchem [5]): 4.13
Compound: O=C(c1ccc(OCCN2CCCCC2)cc1)c1c(-c2ccc(O)cc2)sc2cc(O)ccc12 [RALOXIFENE]

PPB [1]: 97.13%
Compound: Nc1nc2ccc(OC(F)(F)F)cc2s1 [RILUZOLE]

PPB [4]: 94.56%
Compound: O=C(NC[C@H]1CN(c2ccc(N3CCOCC3=O)cc2)C(=O)O1)c1ccc(Cl)s1 [RIVAROXABAN]

PPB [1]: 99.5%
microsomal CLint (in vitro [15]; microsomes): 5 µL/min/mg
hepatocyte CLint (in vitro [13]): > 150 µL/min/1e6 cells
solubility thermodynamic (physchem [8]): 1.1 µM (≈ 0.444 µg/mL)
fraction unbound at 5 h (in vitro [6]): 0.0114
logD (physchem [5]): 3.95
Compound: O=C(Nc1c(Cl)cncc1Cl)c1ccc(OC(F)F)c(OCC2CC2)c1 [ROFLUMILAST]

fraction unbound at 5 h (in vitro [2]): 0.0037
microsomal CLint (in vitro [15]; microsomes): 50 µL/min/mg
hepatocyte CLint (in vitro [13]): 114 µL/min/1e6 cells
PPB [4]: 99.3%
logD (physchem [5]): 3.76
Compound: CSc1ccc2c(c1)N(CCC1CCCCN1C)c1ccccc1S2 (stereo not given) [THIORIDAZINE]

PPB [1]: 84.9%
microsomal CLint (in vitro [15]; liver microsomes): 5 µL/min/mg
hepatocyte CLint (in vitro [13]): < 3 µL/min/1e6 cells
Compound: N#Cc1cc(-c2n[nH]c(-c3ccncc3)n2)ccn1 [TOPIROXOSTAT]

Second part, the compound before the results:

Compound: Oc1nc(-c2ccc(C(F)(F)F)cc2)nc2c1CSCC2
PPB [1]: 97.6%

Compound: Cc1ccc(-c2ccc3c(ccc4sc5c(c43)NC[C@@H](C)NC5=O)n2)cn1
fraction unbound at 5 h (in vitro [2]): 0.151
fraction unbound at 5 h (in vitro [3]): 0.0229
PPB [4]: 98.86%
logD (physchem [5]): 3.6

Compound: CC1(C)[C@H](NC(=O)/C(=N\OCc2cc(=O)c(O)cn2O)c2csc(N)n2)C(=O)N1OS(=O)(=O)O
PPB [1]: 69.12%
fraction unbound at 5 h (in vitro [6]): 0.124

Compound: O=C(NCc1cccnc1OCC(F)(F)F)c1cncc(-c2ccc(Cl)cc2)c1
PPB [4]: 99.87%

Compound: Cc1ccc(S(=O)(=O)Nc2c(C(=O)N[C@@H](C)C(C)(C)C)c(C)nn2-c2ccccc2)cc1
PPB [1]: 98.89%
fraction unbound at 5 h (in vitro [7]): 0.0321
PPB [4]: 95.82%
solubility thermodynamic (physchem [8]): 1020 µM (≈ 465 µg/mL)
fraction unbound at 5 h (in vitro [9]): 0.0818
logD (physchem [5]): 1.44

Compound: COc1cc2nc(-c3ccc(N4CCN(C)CC4)cc3)nc(NCCN3CCOCC3)c2cc1OC
pKa (physchem [10]): 6.78
pKa (physchem [11]): 7.93
pKa [12]: 5.6

Compound: COc1cc(-n2cnc3cc(-c4ccc(Cl)cc4)sc3c2=O)ccc1OC[C@H](O)C1CC1
fraction unbound at 5 h (in vitro [2]): 0.0021
fraction unbound at 5 h (in vitro [3]): 0.0018
hepatocyte CLint (in vitro [13]): 9.77 µL/min/1e6 cells
fraction unbound at 5 h (in vitro [7]): 0.0014
PPB [4]: 98.81%

Compound: Cc1ccc(-c2cc(C(F)(F)F)nn2-c2ccc(S(N)(=O)=O)cc2)cc1 [CELECOXIB]
PPB [1]: 98.94%
solubility thermodynamic (physchem [8]): 2.2 µM (≈ 0.839 µg/mL)
hepatocyte CLint (in vitro [18]): 25.7 µL/min/1e6 cells
logD (physchem [5]): 3.42

Compound: COc1ccc([C@@H]2Sc3ccccc3N(CCN(C)C)C(=O)[C@@H]2OC(C)=O)cc1.Cl [DILTIAZEM HYDROCHLORIDE]
PPB [1]: 35.46%

Compound: COc1ccc([C@@H]2Sc3ccccc3N(CCN(C)C)C(=O)[C@@H]2OC(C)=O)cc1 [DILTIAZEM]
PPB [1]: 75.97%
microsomal CLint (in vitro [15]; liver microsomes): 43.6 µL/min/mg
hepatocyte CLint (in vitro [13]): > 150 µL/min/1e6 cells
fraction unbound at 5 h (in vitro [7]): 0.349
pKa (physchem [11]): 8.08
hepatocyte CLint (in vitro [18]): 9.33 µL/min/1e6 cells
logD (physchem [5]): 1.99

Compound: Cc1ccc(C(=O)N(CCCN)[C@@H](c2nc3cc(Cl)ccc3c(=O)n2Cc2ccccc2)C(C)C)cc1 [ISPINESIB]
PPB [1]: 99.4%
